Experimental data from BindingDB's records for doi:10.1021/jm070556y (St. Jude Research Hospital, 2007).
pIC50: −log10 of the molar value.

Key:
[1] = biological target: T1, Thyroid hormone receptor beta [209-461] (Homo sapiens, UniProt P10828); assay: Fluorescence Polarization (FP) Competition Assay
T1 construct: 209-461
T1 sequence (P10828 whole entry): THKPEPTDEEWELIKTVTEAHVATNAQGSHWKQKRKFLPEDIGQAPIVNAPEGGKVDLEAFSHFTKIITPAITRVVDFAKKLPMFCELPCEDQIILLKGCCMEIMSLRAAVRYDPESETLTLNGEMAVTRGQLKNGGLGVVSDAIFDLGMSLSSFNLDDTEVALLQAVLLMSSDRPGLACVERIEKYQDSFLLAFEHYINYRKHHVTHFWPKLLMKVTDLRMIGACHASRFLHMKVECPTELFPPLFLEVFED
Experimental: (§1) IC50 is the concentration of each compound required to inhibit 50% of the binding between the TR LBD and the SRC2-2 peptide using fluorescence polarization (FP) assay. The competition binding experiments were evaluated using PrismPad, and the IC50 values were obtained by fitting the data to an equation, Sigmoidal dose-response (variable slope) or four parameter logistic equation.

[2] = biological target: T2, Thyroid hormone receptor alpha [148-410] (Homo sapiens, UniProt P10827); assay: Fluorescence Polarization (FP) Competition Assay
T2 construct: 148-410
T2 sequence (P10827 whole entry): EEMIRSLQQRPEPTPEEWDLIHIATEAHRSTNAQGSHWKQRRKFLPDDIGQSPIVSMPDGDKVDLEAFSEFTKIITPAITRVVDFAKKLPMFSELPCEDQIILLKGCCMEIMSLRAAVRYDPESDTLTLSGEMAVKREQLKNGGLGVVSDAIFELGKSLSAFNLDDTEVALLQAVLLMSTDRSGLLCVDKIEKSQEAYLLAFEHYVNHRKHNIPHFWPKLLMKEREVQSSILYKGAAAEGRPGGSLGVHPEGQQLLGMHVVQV
Experimental: as §1

| Compound | pIC50 [1] | pIC50 ([2]; pH 7.2, 22 °C) | pIC50 [2] |
| --- | --- | --- | --- |
| C=CC(=O)Oc1ccc(C(C)(C)CC)cc1 [4-(2-methylbutan-2-yl)phenyl prop-2-enoate] | 4.36 | 4.16 | – |
| C=CC(=O)Oc1ccc(CCCC)cc1 [4-butylphenyl prop-2-enoate] | 4.18 | 4.15 | – |
| C=CC(=O)Oc1ccc(C(=O)OCCC)cc1 [propyl 4-(prop-2-enoyloxy)benzoate] | 4.21 | – | < 4.00 |
| CCCCCCc1ccc(C(=O)CCN2CCCC2)cc1 [1-(4-hexylphenyl)-3-(pyrrolidin-1-yl)propan-1-one] | 5.57 | 5.37 | – |
| C=CC(=O)Oc1ccc2c(c1)CCCC2 [5,6,7,8-tetrahydronaphthalen-2-yl prop-2-enoate] | 4.16 | – | 4.07 |
| C=CC(=O)Oc1ccccc1C(=O)OCCCCCC [hexyl 2-(prop-2-enoyloxy)benzoate] | 5.09 | – | 4.41 |
| CCCCCCc1ccc(C(=O)/C=C/C(=O)O)cc1 [(2E)-4-(4-hexylphenyl)-4-oxobut-2-enoic acid] | 4.75 | 4.72 | – |
| C=CC(=O)Oc1ccc(CCCCCCC)cc1 [4-heptylphenyl prop-2-enoate] | 4.98 | – | 4.64 |
| C=CC(=O)Oc1ccc(CCCCC)cc1 [4-pentylphenyl prop-2-enoate] | 4.47 | 4.22 | – |
| C=CC(=O)Oc1ccc(CCCCCC)cc1 [4-hexylphenyl prop-2-enoate] | 4.73 | – | 4.34 |
| C=CC(=O)Oc1ccc(C(=O)OCCCCC)cc1 [pentyl 4-(prop-2-enoyloxy)benzoate] | 4.25 | – | < 4.00 |
| C=CC(=O)Oc1ccc(NC(=O)CCC)cc1 [4-butanamidophenyl prop-2-enoate] | 4.07 | – | < 4.00 |
| C=CC(=O)Oc1ccc(CCCCCCCC)cc1 [4-octylphenyl prop-2-enoate] | 4.94 | – | 4.67 |
| C=CC(=O)Oc1ccc(CCC)cc1 [4-propylphenyl prop-2-enoate] | 4.00 | – | – |
| C=CC(=O)OC1CCC(C(C)(C)CC)CC1 (centres undefined) [4-(2-methylbutan-2-yl)cyclohexyl prop-2-enoate] | 4.16 | – | 4.12 |
